Series [1] concerns B16 melanoma cells. The series can be described thus: MTT cell viability assay, B16 cell proliferation. Type of series: cell-based, murine. The conditions noted are these: 24 h, 37° C., read-out: IC50, inhibition of B16 cell proliferation. As for the experimental part:
Human melanocytes and murine B16 melanoma cells obtained from the American Type Culture Collection (ATCC®, MD) were grown overnight in a 10-mm petri-dish at 37° C. in MEM and RPMI medium 1640, respectively, supplemented with 10% heat-inactivated FBS, 100 units/mL penicillin, and 100 μg/mL streptomycin, in a humidified 5% CO2 incubator. Cell viability was measured by MTT-based colorimetric assay. The formula to calculate viable cell (%) is as follows: Cell viability (%)=(sample OD550/control OD550)×100% Synergism of DET and Cisplatin

Series [2] is described as follows: Primary metabolome of kidney tissues by UPLC/ESI-Q-TOF MS. Type of series: in vivo, C57BL/6J mice. As for the experimental part:
Primary metabolome in the kidney tissues of test mice with various treatments were analyzed using UPLC-QTOF MS. Kidney samples (150 mg) were homogenized with 600 μL methanol and 127.5 μL distilled water. The homogenates were vigorously mixed with 1.2 mL chloroform:H2O solution (1:1, v/v) and then put at −20° C. for 20 min. After centrifugation at 13000×g for 10 min at 4° C., the supernatant (water layer) was collected, dried in a vacuum, and then reconstituted in 100 μL of 50% methanol for analysis.
LC-MS was performed with a LC system (ACQUITY UPLC, Waters, Millford, Mass.) coupled to a hybrid Q-TOF mass spectrometer (Synapt HDMS, Waters, Manchester, U.K.). The sample was separated online with a reverse-phase column (HSS T3 C18, 1.8 μm, 2.1 mm×150 mm, Waters, Milford, Mass.) which was kept in a column oven at 40° C. The mobile phases for positive ion mode consisted of 0.1% formic acid in 2% ACN (buffer A) and 0.1% formic acid in 100% ACN (buffer B). The mobile phases for negative ion mode consisted of pure H2O (buffer A) and pure 100% AcCN (buffer B).
The mass spectrometer equipped with lock electrospray ionization probe was operated in both positive and negative (ESI) modes. The electrospray voltage was set at 3 kV for positive ion mode and −2.5 kV for negative ion mode, and the cone voltage was 40V. The cone and desolvation gas flow were 50 and 700 L/h, respectively. A lock mass calibration of sulfadimethoxin (0.5 mg/L) in water/MeOH (50:50, v/v) was introduce by the HPLC pump (LC-10ATVP, Shimadzu, Japan) and split the 5 μL/min to the lockspray probe. The acquisition method was set to one full MS scan (50-990 m/z) with 0.2 sec scan time in centroid data mode.
The UPLC-MS data were analyzed using MarkerLynx XS version 4.1 SCN639 (Waters, Millford, Mass.). In this application, the peaks in the 0.5-4 min LC-MS data were detected and the noise reduced in both LC and MS domains. The extracted peak information was also processed to remove the peak-to-peak noise, deisotope and filter the MS peak with the intensity lower than 50 counts. A list of the intensities of the processed peaks for each of the LC-MS data was generated using retention time (RT) and m/z data pairs as the identifier of each peak. The processed data for each sample were combined and aligned for each of the RT-m/z pair to generate the final data table. The ion intensities for each peak were then normalized within each sample and the 3-dimensional data, peak identifier (RT-m/z pair), sample name, and ion intensity were analyzed by principle component analysis (PCA). Partial least-squares-discriminant analysis (PLS-DA), a supervised chemometric procedure, was used to define the maximum classification and separation of independent samples.

Series [3] concerns B16 melanoma cells. The series can be described thus: Cell cycle analysis by flow cytometry (sub-G1 fraction). Type of series: cell-based, murine. The conditions noted are these: 24 h, data not shown. As for the experimental part:
Both adherent and floating cells were collected, washed with PBS and fixed with 1 mL of ice-cold 70% ethanol overnight at 4° C.

The subject of another series is B16 cells. The series can be described thus: Time-lapse cell motility assay. It counts as cell-based, murine. The conditions noted are these: time-lapse videomicroscopy over 24 h, 3 μM DET, 40 μM CP, 3 μM DET plus 40 μM CP; for migration velocity of B16 cells: vehicle control 0.35±0.09; for migration distance of B16 cells: vehicle control 488.2±147.1. As for the experimental part: Cell motility was assessed by time-lapse videomicroscopy. B16 cells were seeded in 6 cm dish for 3 h and maintained at constant temperature (37° C.) and 5% CO2 chamber throughout the experimental period. Cells were observed under an inverted microscope (Zeiss Axiovert 200M), and phase-contrast snap photographs (one frame every 30 min) were digitally recorded for 24 h. Cell paths were generated from centroid positions, and cell velocities of migration were analyzed using the tracking object of the Metamorph software (Molecular Device).

Series [4] relates to metastatic B16 melanoma tumors. The series can be described thus: Survival of mice carrying metastatic B16 melanoma. Type of series: in vivo, C57BL/6J mice. As to conditions: tumor control 33 days. As for the experimental part: All data were expressed as means±SD. For the survival data, the log-rank test was used to determine differences among tumor control, drug and compound treated groups. For other experiments, differences between treatments were determined by ANOVA. A P<0.05 is considered statistically significant.

For series [5] the following is noted: Day 21.
Description: Female C57BL/6J mice (National Laboratory Animal Center, Tainan, Taiwan) were given a standard laboratory diet and distilled water ad libitum and kept on a 12-h light/dark cycle at 22±2° C. In total, 63 mice were randomly divided and assigned into 7 groups. Female C57BL/6J mice received an intravenous (i.v) injection with 1×10^5 B16 cells in 200 μL PBS through the tail vein at Day 0. On Day 1, mice were divided into tumor group, CP2 group, DET10 group, DET10+CP1 group, and CP2→DET10 group. The mice were treated intraperitoneally (i.p.) every two days with 2 mg/kg body weight (BW) cisplatin (CP2), 10 mg/kg BW DET (DET10), DET10 mixed with 1 mg/kg BW cisplatin (DET10+CP1), and with CP2 five times and DET10 five times, then CP2 and DET10 taking turns every two days till the end of the experiments (CP2→DET10 group), respectively. The Pre-DET10 group mice were treated i.p with DET (10 mg/kg BW) every two days two weeks before (Day 14) tumor cells inoculation on Day 0, and continuously treated with DET10 till the end of the experiment. The tumor control mice were treated with vehicle DMSO. The mice in the sham control group were injected i.p. with 20 μL DMSO on Day 1 every 2 days throughout the experimental period. […] On Day 21 post-tumor injection, three mice from each group were euthanized and blood collected for complete blood count (CBC) analysis.
Complete blood samples of test mice in each group on Day 21 were subjected to the analysis of white blood cell (WBC), neutrophil (N), monocyte (M), basophil (B) red blood cell (RBC), platelet (PLT), hemoglobin (Hb), and hematocrit (Ht) and other cell counts with a hemacytometer (FIG. 10).
The test system of series [6] is B16 melanoma cells. Briefly: Migration and invasion assay (trans-well). It counts as cell-based, murine. As to conditions: 24 h; for B16 melanoma cell invasion: Matrigel. The method, then:
B16 cells (1×10^5 cells) were cultured in culture-inserts of boyden chamber (ibidi, Germany) for 12 h. The culture-inserts were removed and added DET or cisplatin alone or in combination for 24 h. B16 cells were added into a 24-transwell permeable plate (8.0 μm polycarbonate membrane, 6.5 mm insert; Corning Incorporated, Corning, N.Y.) coated with Matrigel basement membrane matrix. The bottom wells received 50 μL medium having the same concentration of serum as the top well, either 1% or 10% FBS. Cells were removed from the upper and lower sides of the filter after 24 h. The ratio of the counts obtained from the bottom versus total counts from both sides was used to determine migration and invasiveness. The invading cells remaining in the well were counted in six randomly chosen low-power fields at 100× original magnification by inverted fluorescence microscopy.

Series [7] can be described thus: Histology, TUNEL and F4/80 immunostaining of kidney tissues.
Description: (§1) Female C57BL/6J mice (National Laboratory Animal Center, Tainan, Taiwan) were given a standard laboratory diet and distilled water ad libitum and kept on a 12-h light/dark cycle at 22±2° C. In total, 63 mice were randomly divided and assigned into 7 groups. Female C57BL/6J mice received an intravenous (i.v) injection with 1×10^5 B16 cells in 200 μL PBS through the tail vein at Day 0. On Day 1, mice were divided into tumor group, CP2 group, DET10 group, DET10+CP1 group, and CP2→DET10 group. The mice were treated intraperitoneally (i.p.) every two days with 2 mg/kg body weight (BW) cisplatin (CP2), 10 mg/kg BW DET (DET10), DET10 mixed with 1 mg/kg BW cisplatin (DET10+CP1), and with CP2 five times and DET10 five times, then CP2 and DET10 taking turns every two days till the end of the experiments (CP2→DET10 group), respectively. The Pre-DET10 group mice were treated i.p with DET (10 mg/kg BW) every two days two weeks before (Day 14) tumor cells inoculation on Day 0, and continuously treated with DET10 till the end of the experiment. The tumor control mice were treated with vehicle DMSO. The mice in the sham control group were injected i.p. with 20 μL DMSO on Day 1 every 2 days throughout the experimental period.
Paraffin-embedded kidney tissues were prepared from three mice in each group on Day 21. The paraffin-embedded kidney was sectioned (4 μm) and underwent H&E staining. In situ apoptotic cells in kidney tissues were determined by TUNEL assay (Chemicon) and the mean proportions of positive TUNEL cells were measured using AxioVision software (Carl Zeiss MicroImaging, Inc.). Immunostaining of macrophage infiltration in the kidney tissues was performed using F4/80 antibody and visualized with goat anti-mouse Cy3-labeled secondary antibodies (Jackson ImmunoResearch), counterstained with DAPI (1 μg/mL).
For series [8] the following is noted: for plasma BUN: groups CP2 and DET10+CP1.
Description: as §1
The plasma BUN content, an indication of kidney function, was determined in test animals using QuantiChrom™ Urea Kit (BioAssay Systems).
Series [9] relates to lung metastasis of B16 melanoma (B16-COX-2/Luc cells). The series can be described thus: Inhibition of lung metastasis of B16 cells in syngeneic mice, in vivo bioluminescence imaging. The conditions noted are these: for mean bioluminescence intensity compared to tumor group (100%): Day 30; for remained bioluminescence intensity relative to tumor control group (100%): Day 21. On the set-up: species or system C57BL/6J mice. The method, then: Stable B16 melanoma cell clone carrying COX-2 promoter driven-luciferase (pGL-COX-2/Luc) reporter gene plasmid was established. […] The B16-COX-2/Luc stable cell line was used in the mouse lung metastasis experiments.
After 10 minutes of incubation with luciferin, each mouse was placed in a right lateral decubitus position and a digital grayscale animal image was acquired using an IVIS spectrum (Xenogen Corp.). The acquisition and overlay of a pseudocolor image was taken, which represents the spatial distribution of detected photons emerging from active luciferase within the animals. Signal intensity was quantified using an IVIS Spectrum system (Xenogen Corp.) as the sum of all detected photons per second on Day 0, 7, 14, 18, 21, 23, 26 and 30 of treatment.

Series [10] in a line: Body weight of B16 tumor-bearing mice. The conditions noted are these: groups CP2 (cisplatin 2 mg/kg BW) and DET10+CP1, i.p. every two days; P<0.05. Type of series: in vivo, C57BL/6J mice.
Description: Female C57BL/6J mice (National Laboratory Animal Center, Tainan, Taiwan) were given a standard laboratory diet and distilled water ad libitum and kept on a 12-h light/dark cycle at 22±2° C. In total, 63 mice were randomly divided and assigned into 7 groups. Female C57BL/6J mice received an intravenous (i.v) injection with 1×10^5 B16 cells in 200 μL PBS through the tail vein at Day 0. On Day 1, mice were divided into tumor group, CP2 group, DET10 group, DET10+CP1 group, and CP2→DET10 group. The mice were treated intraperitoneally (i.p.) every two days with 2 mg/kg body weight (BW) cisplatin (CP2), 10 mg/kg BW DET (DET10), DET10 mixed with 1 mg/kg BW cisplatin (DET10+CP1), and with CP2 five times and DET10 five times, then CP2 and DET10 taking turns every two days till the end of the experiments (CP2→DET10 group), respectively. The Pre-DET10 group mice were treated i.p with DET (10 mg/kg BW) every two days two weeks before (Day 14) tumor cells inoculation on Day 0, and continuously treated with DET10 till the end of the experiment. The tumor control mice were treated with vehicle DMSO. The mice in the sham control group were injected i.p. with 20 μL DMSO on Day 1 every 2 days throughout the experimental period. Tumor volumes were measured every 3 days and the body weight recorded once a week.
A further series has as its system Human melanocytes. The series can be described thus: MTT cell viability assay, normal melanocytes. As to conditions: 24 h. It counts as cell-based. As for the experimental part: Cell viability was measured by MTT-based colorimetric assay.
(In general: Formazan colour is commonly taken as a measure of viable cells.)

[11] abbreviates: i.p. every two days from Day 1, groups CP2, DET10, DET10+CP1, CP2→DET10.
[12] abbreviates: Day 21, groups CP2, DET10, DET10+CP1, CP2→DET10, i.p. every two days from Day 1.
[13] abbreviates: groups CP2, DET10, DET10+CP1, CP2→DET10, compared with control tumor-bearing group.
Where [14] appears, read: i.p. every two days from Day 1, groups CP2 (cisplatin 2 mg/kg BW), DET10 (DET 10 mg/kg BW), DET10+CP1, CP2→DET10.
The mark [15] stands for this setting: pre-DET and DET groups, assignment to group unclear.
Where [16] appears, read: Pre-DET10 group: DET 10 mg/kg BW i.p. every two days from two weeks before tumor inoculation to end.

Molecules are shown by their SMILES. Read-outs that look alike come from different tables or passages of the source.

On to `N.N.[Cl][Pt][Cl]` [CP, cis-diamminedichloroplatinum(II), reference compound], for which the IC50 with B16 melanoma cells [1] was determined as 45 µM. Also, in [2] (CP2 group), the “decrease in alanine, aspartate, phenylalanine, and tryptophan in kidney tissues, in comparison with the sham control” value is 1.7- to 2.4 fold; the “increase in pyruvate, citrulline, creatine, uric acid, hippuric acid, and 5-HIAA in kidney tissues, in comparison with the sham control” value is 1.6- to 12.5 fold. Also, the “increase in 5-HIAA in kidney tissues” value in series [2] (groups CP alone, DET+CP, CP→DET) was 8.6 fold. Further, the “sub-G1 (apoptotic) cell fraction” value in the series with B16 melanoma cells [3] is 9%. In addition, in the series on B16 cells, the “migration velocity of B16 cells” value was determined as 0.26±0.14 μm/min and the “migration distance of B16 cells” value was 376.6±100 μm. Besides, the median survival in series [4] (setting [11]) was found to be 43 days. Besides, in [5] (CP2 group), the “neutrophil population, times higher than the sham control” value amounted to 3.5 times and the “neutrophil population, times higher than the tumor group” value amounted to 2.55 times. Also, the “effect on the peripheral blood cells profile (haematological toxicity)” value in series [5] (groups CP2 and DET10) is listed as “severe haematological toxicity”. Further, in the series on B16 melanoma cells [6], the “B16 melanoma cell migration” value is “inhibited” and the “B16 melanoma cell invasion” value is recorded as “inhibited”. The “H&E staining of kidney tissues” value in [7] (Day 21, CP2 group, cisplatin 2 mg/kg BW i.p. every two days) is “severe glomerular congestion and tubular epithelial atrophy”. The “TUNEL-positive (apoptotic) cells in renal tissues” value in series [7] (setting [12]) is reported as “observed mostly”. Moreover, the “macrophage/monocyte infiltration in renal tissues (F4/80 immunostaining)” value in [7] (setting [13]) was “much significant”. Moreover, in series [8] (Day 14, sham control 25.4±4.1), the “plasma BUN” value was 61.1 ± 4.3 mg/dL. Moreover, the “plasma BUN” value in series [8] (Day 21, sham control 25.1±4.1) is 67.3 ± 0.1 mg/dL. Besides, the “mean bioluminescence intensity compared to tumor group (100%)” value in series [9] (setting [14]) amounted to 2%. Besides, the “body weight of test mice” value in series [10] is “significantly decreased”.

Turning to `C=C(C)C(=O)O[C@H]1CC2=C[C@@H](C/C(C)=C/[C@H]3OC(=O)C(=C)[C@H]13)OC2=O` [DET, deoxyelephantopin], the IC50 with B16 melanoma cells [1] came to 4.5 µM. Besides, the “increase in carnitine in kidney tissues” value in [2] (setting [15]) is given as 2.3 fold. Moreover, in series [2] (setting [15]), the “increase in pyruvate in kidney tissues” value stood at 1.6 fold. Besides, the “increase in taurine in kidney tissues” value in series [2] (setting [15]) came out at 2.1 fold. For the same compound, in the series on B16 melanoma cells [3], the “sub-G1 (apoptotic) cell fraction” value was found to be 8.5%. In the series on B16 cells, the “migration velocity of B16 cells” value worked out at 0.16±0.06 μm/min. In addition, in the series with B16 cells, the “migration distance of B16 cells” value amounted to 224.1±85.9 μm. For the same compound, the median survival in series [4] (Pre-DET10 group: DET 10 mg/kg BW i.p. from two weeks before tumor inoculation) stood at 43 days; in [4] (setting [11]) it was 39 days. The “effect on the peripheral blood cells profile (haematological toxicity)” value in series [5] (Pre-DET10 group) is given as “did not cause deleterious effect”; in [5] (groups CP2 and DET10), “did not cause deleterious effect”. The “levels of neutrophil (N) counts” value in series [5] (groups DET10, DET10+CP1, CP2→DET10) is recorded as “Increase levels”. Also, in the series with B16 melanoma cells [6], the “B16 melanoma cell migration” value is “inhibited”. The “B16 melanoma cell invasion” value with B16 melanoma cells [6] is “inhibited”. In addition, the “toxicity on normal human melanocytes” value in the series with Human melanocytes is recorded as “little or no toxicity”. Besides, the “TUNEL-positive (apoptotic) cells in renal tissues” value is “not detectable” in series [7] (Day 21, Pre-DET10 group, DET 10 mg/kg BW from two weeks before tumor inoculation) and “not detectable” in [7] (setting [12]). The “macrophage/monocyte infiltration in renal tissues (F4/80 immunostaining)” value in [7] (Pre-DET10 group) and in series [7] (setting [13]) was “little or no detectable inflammatory cell infiltration” each time. For the same compound, the “change of BUN level compared to the sham control group” value was “little or no detectable changes” in [8] (DET10 group, DET 10 mg/kg BW i.p. every two days from Day 1) and “little or no detectable changes” in series [8] (Pre-DET10 group, DET 10 mg/kg BW from two weeks before tumor inoculation). For the same compound, the “remained bioluminescence intensity relative to tumor control group (100%)” value in series [9] (setting [16]) is recorded as 15%; in [9] (setting [14]), 49%. For the same compound, the results for the “mean bioluminescence intensity compared to tumor group (100%)” value in [9] (setting [16]) and in series [9] (setting [14]) were 23% and 45%, respectively.

(Values after patent US8754121B2, “Use of deoxyelephantopin (DET) and analogues thereof for treatment of melanoma” (priority 2010, dated 2014).)
